Measured values: US20240294566A1, “ESTROGEN RECEPTOR BETA SELECTIVE LIGANDS” (Or-Genix Therapeutics, Inc., priority 2016, published 2024)
pEC50, pIC50: −log10 of the molar value.

How the values were obtained:
[1] = molecular target: T1, ERα (Homo sapiens, UniProt P03372); test: Homogeneous in vitro functional assay, coactivator recruitment (FRET); assay type: biochemical; settings: FIG. 1
T1 sequence (P03372 311-547 limits assumed): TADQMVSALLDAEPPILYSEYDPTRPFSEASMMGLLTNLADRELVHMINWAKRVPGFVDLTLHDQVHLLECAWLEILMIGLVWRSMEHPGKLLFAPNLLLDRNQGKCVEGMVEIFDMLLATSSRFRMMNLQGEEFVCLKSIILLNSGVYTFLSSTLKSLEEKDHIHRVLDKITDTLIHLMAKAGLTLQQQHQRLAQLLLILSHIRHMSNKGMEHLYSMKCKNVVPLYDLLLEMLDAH
Description: (§1) Structures 15 and 15′ were tested in a functional assay for ERβ and ERα as described in Liu J. et al. A Homogeneous in Vitro Functional Assay for Estrogen Receptors: Coactivator Recruitment. Mol Endocrinology 17, 346-355 (2003). Briefly, a homogeneous in vitro functional assay for measuring ligand-dependent transactivation function of ERαa and ERβ was used to measure selectivity of structures 15 and 15′ as agonists for the two classes of receptors. Briefly, agonist binding of Structures 15 and 15′ were assessed by measuring Fluorescence Resonance Energy Transfer (FRET) between europium that is associated with ligand binding domains of ERα and ERβ, and allophycocyanine that is associated with co-activator peptide that is recruited to the LBD in response to agonist binding.

[2] = molecular target: T2, ERβ (Homo sapiens, UniProt Q92731); test: as above; assay type: biochemical; settings: for selectivity for ERβ: ERβ over ERα, functional assay
Description: as §1
Target sequence in this assay (Q92731 264-498 limits assumed): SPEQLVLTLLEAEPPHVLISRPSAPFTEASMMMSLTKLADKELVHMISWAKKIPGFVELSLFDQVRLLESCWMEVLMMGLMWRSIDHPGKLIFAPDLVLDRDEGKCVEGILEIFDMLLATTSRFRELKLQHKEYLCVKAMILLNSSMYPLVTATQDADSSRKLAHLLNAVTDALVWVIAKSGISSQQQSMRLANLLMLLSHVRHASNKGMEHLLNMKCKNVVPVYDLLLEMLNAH

[3] = molecular target: T2, ERβ; test: Binding assay, inhibition of [3H] estradiol binding to hER; settings: FIG. 2
Description: (§2) Structures 3 and 3' were tested in a binding assay for ERβ and ERα as described in Obourn […]. & Notides A. C. Hormone-and DNA-Binding Mechanisms of the Recombinant Human Estrogen Receptor. Biochemistry 32, 6229-6236 (1993). Briefly, agonist binding of Structure 3 and Structure 3' to ERα and ERβ were assessed by Scatchard analysis measuring inhibition of [^3H] estradiol binding to hER by Structure 3 and 3'.
Target sequence in this assay (Q92731 whole entry): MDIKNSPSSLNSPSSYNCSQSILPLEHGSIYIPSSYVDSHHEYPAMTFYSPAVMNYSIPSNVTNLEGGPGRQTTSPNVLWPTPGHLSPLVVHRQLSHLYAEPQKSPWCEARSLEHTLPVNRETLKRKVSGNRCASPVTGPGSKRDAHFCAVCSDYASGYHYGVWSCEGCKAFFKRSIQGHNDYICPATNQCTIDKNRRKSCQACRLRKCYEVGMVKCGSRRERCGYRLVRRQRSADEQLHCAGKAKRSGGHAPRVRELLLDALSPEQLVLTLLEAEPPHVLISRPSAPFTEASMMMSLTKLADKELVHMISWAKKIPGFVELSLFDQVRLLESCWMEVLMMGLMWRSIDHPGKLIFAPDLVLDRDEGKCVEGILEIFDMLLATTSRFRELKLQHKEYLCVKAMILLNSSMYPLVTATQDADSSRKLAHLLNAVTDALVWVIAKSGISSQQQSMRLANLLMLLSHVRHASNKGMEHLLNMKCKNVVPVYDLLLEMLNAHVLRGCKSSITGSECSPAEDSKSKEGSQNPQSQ

[4] = molecular target: T3, ERα (Homo sapiens, UniProt P03372); test: as above
T3 sequence (P03372 1-595): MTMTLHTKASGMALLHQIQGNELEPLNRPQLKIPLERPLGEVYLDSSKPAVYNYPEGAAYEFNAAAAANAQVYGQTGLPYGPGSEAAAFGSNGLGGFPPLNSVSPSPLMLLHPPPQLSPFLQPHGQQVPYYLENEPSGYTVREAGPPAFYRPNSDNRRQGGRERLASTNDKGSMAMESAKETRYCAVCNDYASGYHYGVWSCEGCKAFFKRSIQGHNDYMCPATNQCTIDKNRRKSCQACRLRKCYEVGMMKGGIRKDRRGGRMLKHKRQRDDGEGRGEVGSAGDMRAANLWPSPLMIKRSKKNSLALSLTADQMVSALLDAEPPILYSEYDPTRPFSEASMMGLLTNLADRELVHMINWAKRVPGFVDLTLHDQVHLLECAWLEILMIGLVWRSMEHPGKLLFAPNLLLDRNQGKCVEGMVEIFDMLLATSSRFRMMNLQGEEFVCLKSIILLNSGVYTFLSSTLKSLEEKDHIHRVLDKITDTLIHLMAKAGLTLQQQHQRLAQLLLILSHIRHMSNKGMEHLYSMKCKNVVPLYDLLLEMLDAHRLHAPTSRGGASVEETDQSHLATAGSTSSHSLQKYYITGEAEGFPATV
Description: as §2

[5] = molecular target: T2, ERβ; test: Dual estrogen receptor TR-FRET functional assay; assay type: biochemical; settings: dual ER TR-FRET assay, FIG. 3
Description: (§3) Structures 3 and 3' were tested in a functional assay for ERβ and ERα as described in […]., Puetter V., Otto C. Parczyk K. & Bader B. A Dual Estrogen Receptor TR-FRET Assay for Simultaneous Measurement of Steroid Site Binding and Coactivator Recruitment. J Biomolec Screening 15, 268-278 (2010). Briefly, agonist binding of Structures 3 and 3' to ERα and ERβ were assessed by a dual estrogen receptor TR-FRET assay.
Target sequence in this assay (Q92731 whole entry): as the sequence (Q92731 whole entry) above

[6] = molecular target: T3, ERα; test: Dual estrogen receptor TR-FRET functional assay; assay type: biochemical; settings: dual ER TR-FRET assay
Description: as §3

pIC50 [3]	pEC50 [5]	SMILES	selectivity for ERβ [2]	also measured
–	–	COC(=O)CC[C@H]1C[C@H]2[C@@H]3CCc4cc(O)ccc4[C@H]3CC[C@]2(C)[C@H]1O [Compound 15]	> 10 fold	pEC50 [1]: < 4.00; pEC50 ([2]; functional coactivator recruitment FRET assay, FIG. 1): ~5.00
–	–	COC(=O)CC[C@@H]1C[C@H]2[C@@H]3CCc4cc(O)ccc4[C@H]3CC[C@]2(C)[C@H]1O [Compound 15′, reference compound]	~2 fold	–
7.00	5.52	CCOC(=O)[C@H]1C[C@H]2[C@@H]3CCc4cc(O)ccc4[C@H]3CC[C@]2(C)[C@H]1O [Structure 3]	–	pIC50 ([4]; FIG. 2): 7.11; pEC50 ([6]; FIG. 3A): 5.97
6.85	< 5.00	CCOC(=O)[C@@H]1C[C@H]2[C@@H]3CCc4cc(O)ccc4[C@H]3CC[C@]2(C)[C@H]1O [Structure 3′, reference compound]	–	pIC50 ([4]; FIG. 2B): 8.84; pEC50 ([6]; FIG. 3B): 8.23
